Results taken from US10308659B2, “Pyridine derivatives” (Hoffmann-La Roche Inc., priority 2013, dated 2019).

Assays:
[1] = target: human CB1 receptors (Homo sapiens (Human), UniProt P21554); assay: cAMP assay, CHO cells expressing human CB1 receptors; format: cell-based; details: functional cAMP assay, CHO cells expressing human CB1; read-out: EC50 CB1 human
Outline: (§1)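 Transfected CHO cells were preincubated in Krebs Ringer bicarbonate buffer with 1 mM IBMX for 30 min at 30 °C, then exposed to compound for 30 min at 30 °C. cAMP was measured by time-resolved FRET (730/645 nm) against a standard curve spanning 10 μM to 0.13 nM. EC50 values derived from concentration–response data.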

[2] = target: human CB2 receptors (Homo sapiens (Human), UniProt P34972); assay: cAMP assay, CHO cells expressing human CB2 receptors; format: cell-based; details: functional cAMP assay, CHO cells expressing human CB2; read-out: EC50 CB2 human
Sequence of human CB2 receptors (P34972 whole entry): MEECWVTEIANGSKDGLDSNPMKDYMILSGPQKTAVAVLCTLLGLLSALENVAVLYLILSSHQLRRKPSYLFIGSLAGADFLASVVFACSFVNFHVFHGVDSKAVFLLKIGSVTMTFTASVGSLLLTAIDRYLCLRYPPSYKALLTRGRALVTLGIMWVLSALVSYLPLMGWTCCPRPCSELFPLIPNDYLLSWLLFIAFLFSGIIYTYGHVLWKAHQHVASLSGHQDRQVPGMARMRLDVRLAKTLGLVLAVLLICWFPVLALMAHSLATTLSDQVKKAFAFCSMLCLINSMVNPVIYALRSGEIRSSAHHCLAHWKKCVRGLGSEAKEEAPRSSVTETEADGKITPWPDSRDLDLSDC
Outline: as §1

Sequence of human CB1 receptors (P21554 whole entry): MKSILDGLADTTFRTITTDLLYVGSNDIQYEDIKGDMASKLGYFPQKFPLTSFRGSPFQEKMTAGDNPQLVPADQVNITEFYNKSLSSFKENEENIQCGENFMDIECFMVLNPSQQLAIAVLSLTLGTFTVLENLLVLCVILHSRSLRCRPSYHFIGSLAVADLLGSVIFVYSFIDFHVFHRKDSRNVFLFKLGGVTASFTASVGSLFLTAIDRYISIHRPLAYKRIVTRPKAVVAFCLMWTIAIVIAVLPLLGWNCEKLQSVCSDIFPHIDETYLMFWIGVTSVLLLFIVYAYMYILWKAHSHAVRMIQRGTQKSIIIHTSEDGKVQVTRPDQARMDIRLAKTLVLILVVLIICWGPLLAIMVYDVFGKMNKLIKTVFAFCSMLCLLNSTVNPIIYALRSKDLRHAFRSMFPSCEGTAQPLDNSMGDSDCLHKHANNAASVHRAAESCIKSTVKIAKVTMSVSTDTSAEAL

Row | Structure (SMILES) | EC50 [1] | EC50 [2]
1 | CC(CN1CCCCC1)Oc1cc(-c2noc(C(C)(C)C)n2)ncc1C1CC1 (stereo not shown) [Example 96, 5-tert-butyl-3-[5-cyclopropyl-4-(1-piperidin-1-ylpropan-2-yloxy)pyridin-2-yl]-1,2,4-oxadiazole] | 1010 nM | 75.9 nM
2 | CC(C)(C)c1nc(-c2cc(Oc3ccc(S(C)(=O)=O)cc3)c(C3CC3)cn2)no1 [Example 75, 5-tert-butyl-3-[5-cyclopropyl-4-(4-methylsulfonylphenoxy)pyridin-2-yl]-1,2,4-oxadiazole] | > 10000 nM | 288 nM
3 | CC(C)(C)c1nc(-c2cc(OC3CCOCC3)c(C3CC3)cn2)no1 [Example 63, 5-tert-butyl-3-[5-cyclopropyl-4-(oxan-4-yloxy)pyridin-2-yl]-1,2,4-oxadiazole] | > 10000 nM | 4.3 nM
4 | CC(C)(C)c1nc(-c2cc(OCC3CCO3)c(C3CC3)cn2)no1 (stereo not shown) [Example 58, 5-tert-butyl-3-[5-cyclopropyl-4-(oxetan-2-ylmethoxy)pyridin-2-yl]-1,2,4-oxadiazole] | > 10000 nM | 15.6 nM
5 | CN1CCC[C@H]1COc1cc(-c2nc(C(C)(C)C)no2)ncc1C1CC1 [Example 122, 3-tert-butyl-5-[5-cyclopropyl-4-[[(2S)-1-methylpyrrolidin-2-yl]methoxy]pyridin-2-yl]-1,2,4-oxadiazole] | > 10000 nM | 146 nM
6 | COC(C)CCOc1cc(-c2noc(C(C)(C)C)n2)ncc1C1CC1 (stereo not shown) [Example 89, 5-tert-butyl-3-[5-cyclopropyl-4-(3-methoxybutoxy)pyridin-2-yl]-1,2,4-oxadiazole] | > 10000 nM | 16.2 nM
7 | CC(C)(C)c1noc(-c2cc(OCC3CC3)c(C3CC3)cn2)n1 [Example 6, 3-tert-butyl-5-[5-cyclopropyl-4-(cyclopropylmethoxy)pyridin-2-yl]-1,2,4-oxadiazole] | 9.2 nM | 1 nM
8 | FC(F)(F)COc1cc(-c2noc(C3CC3)n2)ncc1C1CC1 [Example 72, 5-cyclopropyl-3-[5-cyclopropyl-4-(2,2,2-trifluoroethoxy)pyridin-2-yl]-1,2,4-oxadiazole] | > 10000 nM | 45.4 nM
9 | CCC1(CC)COC(c2cc(OCC3CC3)c(C3CC3)cn2)=N1 [Example 11, 2-[5-cyclopropyl-4-(cyclopropylmethoxy)pyridin-2-yl]-4,4-diethyl-5H-1,3-oxazole] | > 10000 nM | 0.6 nM
10 | CC(C)(C)c1cnc(-c2cc(OCC3CC3)c(C3CC3)cn2)o1 [Example 65, 5-tert-butyl-2-[5-cyclopropyl-4-(cyclopropylmethoxy)pyridin-2-yl]-1,3-oxazole] | 170 nM | 1.7 nM
11 | CC(C)(C)c1nc(-c2cc(OCCF)c(C3CC3)cn2)no1 [Example 116, 5-tert-butyl-3-[5-cyclopropyl-4-(2-fluoroethoxy)pyridin-2-yl]-1,2,4-oxadiazole] | > 10000 nM | 15.5 nM
12 | C[C@H](Oc1cc(-c2nnc(C(C)(C)C)o2)ncc1C1CC1)C(F)(F)F [Example 120, 2-tert-butyl-5-[5-cyclopropyl-4-[(2S)-1,1,1-trifluoropropan-2-yl]oxypyridin-2-yl]-1,3,4-oxadiazole] | > 10000 nM | 63 nM
13 | CN1CCCCC1COc1cc(-c2noc(C(C)(C)C)n2)ncc1C1CC1 (stereo not shown) [Example 97, 5-tert-butyl-3-[5-cyclopropyl-4-[(1-methylpiperidin-2-yl)methoxy]pyridin-2-yl]-1,2,4-oxadiazole] | > 10000 nM | 19 nM
14 | CC1(c2nc(-c3cc(OCC(F)(F)F)c(C4CC4)cn3)no2)COC1 [Example 38, 3-[5-cyclopropyl-4-(2,2,2-trifluoroethoxy)pyridin-2-yl]-5-(3-methyloxetan-3-yl)-1,2,4-oxadiazole] | > 10000 nM | 128 nM
15 | CC(C)(C)c1noc(-c2cc(OCC(F)F)c(C3CC3)cn2)n1 [Example 123, 3-tert-butyl-5-(5-cyclopropyl-4-(2,2-difluoroethoxy)pyridin-2-yl)-1,2,4-oxadiazole] | > 10000 nM | 2 nM
16 | CCN1CCC(Oc2cc(-c3noc(C(C)(C)C)n3)ncc2C2CC2)C1 (stereo not shown) [Example 92, 5-tert-butyl-3-[5-cyclopropyl-4-(1-ethylpyrrolidin-3-yl)oxypyridin-2-yl]-1,2,4-oxadiazole] | 768 nM | 75.1 nM
17 | CC(C)(C)c1nc(-c2cc(OC3CCOCC3)c(C3(F)COC3)cn2)no1 [Example 109, 5-tert-butyl-3-[5-(3-fluorooxetan-3-yl)-4-(oxan-4-yloxy)pyridin-2-yl]-1,2,4-oxadiazole] | > 10000 nM | 162 nM
18 | NC1(c2nc(-c3cc(OCC4CC4)c(C4CC4)cn3)no2)COC1 [Example 60, 3-[3-[5-cyclopropyl-4-(cyclopropylmethoxy)pyridin-2-yl]-1,2,4-oxadiazol-5-yl]oxetan-3-amine] | > 10000 nM | 448 nM
19 | CC(C)(C)c1nc(-c2cc(N3CC(F)(F)C(F)(F)C3)c(C3CC3)cn2)no1 [Example 74, 5-tert-butyl-3-[5-cyclopropyl-4-(3,3,4,4-tetrafluoropyrrolidin-1-yl)pyridin-2-yl]-1,2,4-oxadiazole] | > 10000 nM | 4.7 nM
20 | CC(C)(C)c1nc(-c2cc(OCc3ccc(F)cn3)c(C3CC3)cn2)no1 [Example 118, 5-tert-butyl-3-[5-cyclopropyl-4-[(5-fluoropyridin-2-yl)methoxy]pyridin-2-yl]-1,2,4-oxadiazole] | > 10000 nM | 35 nM
21 | CC(C)(C)c1nc(-c2cc(N3CC4(COC4)C3)c(C3CC3)cn2)no1 [Example 82, 6-[2-(5-tert-butyl-1,2,4-oxadiazol-3-yl)-5-cyclopropylpyridin-4-yl]-2-oxa-6-azaspiro[3.3]heptane] | > 10000 nM | 37.9 nM
22 | CC1(c2nc(-c3cc(OCC4CC4)c(C4CC4)cn3)no2)COC1 [Example 28, 3-[5-cyclopropyl-4-(cyclopropylmethoxy)pyridin-2-yl]-5-(3-methyloxetan-3-yl)-1,2,4-oxadiazole] | > 10000 nM | 16 nM
23 | C[C@H](Oc1cc(-c2nc(C(C)(C)C)no2)ncc1C1CC1)C(F)(F)F [Example 52, 3-tert-butyl-5-[5-cyclopropyl-4-[(2S)-1,1,1-trifluoropropan-2-yl]oxypyridin-2-yl]-1,2,4-oxadiazole] | > 10000 nM | 13.1 nM
24 | CN1CCC(Oc2cc(-c3noc(C(C)(C)C)n3)ncc2C2CC2)C1 (stereo not shown) [Example 59, 5-tert-butyl-3-[5-cyclopropyl-4-(1-methylpyrrolidin-3-yl)oxypyridin-2-yl]-1,2,4-oxadiazole] | > 10000 nM | 48.1 nM
25 | CC(C)(C)[C@H]1COC(c2cc(OCC3CC3)c(C3CC3)cn2)=N1 [Example 20, (4S)-4-tert-butyl-2-[5-cyclopropyl-4-(cyclopropylmethoxy)pyridin-2-yl]-4,5-dihydro-1,3-oxazole] | > 10000 nM | 3.7 nM
26 | FC(F)(F)COc1cc(-c2noc(C3CC3)n2)ncc1Cl [Example 71, 3-[5-chloro-4-(2,2,2-trifluoroethoxy)pyridin-2-yl]-5-cyclopropyl-1,2,4-oxadiazole] | > 10000 nM | 280 nM
